# Reference: patent US10555930B2, “Complex of a glucopyranosyl derivative and preparation method and use thereof” (SUNSHINE LAKE PHARMA CO., LTD., priority 2015, dated 2020)
# Assay: Measurement of stability (high-temperature, high-humidity and photostability tests; HPLC impurity content)
# Assay type: physicochemical
# Details: for total impurity / purity: 210 nm
# Method: An appropriate amount of the Complex (IA) sample (prepared from example 2) was weighed and tiled on a clean culture dish at a thickness of ≤5 mm, and analyzed under the following conditions:
# The test sample was placed under a high temperature condition (60±2° C.) for 10 d, the relative indexes were measured at the fifth and tenth days. […] If no significant change, the test at 40° C. was not necessary.
# The test sample was placed under a 25° C. and RH 90%±5% condition for 10 d, and the sample were measured at the fifth and tenth days. Test items should include a moisture-absorption weight gain. If weighting percentage of moisture absorption was more than 5%, the test should be carried out under a 25° C. and RH 75%±5% condition using the same method; If weighting percentage of moisture absorption was less than 5%, and other inspection items met the requirements, the test was not necessary. The constant humidity condition can be realized by adopting constant temperature humidity chamber or placing a saturated saline solution under a closed container. […]
# The test sample was placed in light box or other suitable light vessel under a 4500 Lx±500 Lx of illuminance condition for 10 d, and the sample were measured at the fifth and tenth days.
# The impurity content of the sample was calculated by the normalization method of peak area using an HPLC chromatographic instrument under the above condition, the analytic conditions were shown below:
# The detection was performed on Agilent 1200DAD high pressure liquid chromatography spectrometer (Zorbax Eclipse Plus C18 150×4.6 mm chromatographic column).
# The test condition of HPLC: the run time was 30 minutes (min); the column temperature was 35° C.; the detection was carried out at the wavelength of 210 nm and 225 nm;
# Mobile phase: phase C: acetonitrile phase D: ultrapure water flow rate: 1.0 mL/min.
# Gradient elution, the ratio of mobile phase was shown as table B.
# [1] = high humidity (25° C., RH 90%±5%), 5 d, HPLC
# [2] = high humidity (25° C., RH 90%±5%), 10 d, HPLC
# [3] = high-temperature (60±2° C.), 5 d, HPLC
# [4] = high-temperature (60±2° C.), 10 d, HPLC
# [5] = illumination (4500 Lx±500 Lx), 5 d, HPLC
# [6] = illumination (4500 Lx±500 Lx), 10 d, HPLC
compound,measurement,setting,value
"CCOc1ccc(Cc2cc([C@]34OC[C@]([C@@H](C)O)(O3)[C@@H](O)[C@H](O)[C@H]4O)ccc2Cl)cc1 [compound (I-n) amorphism, (1R,2S,3S,4R,5S)-5-(4-chloro-3-(4-ethoxybenzyl)phenyl)-1-((1R)-1-hydroxyethyl)-6,8-dioxabicyclo[3.2.1]octane-2,3,4-triol]",total impurity,"0 d, HPLC peak area normalization",0.25%
same,purity,"0 d, HPLC",99.75%
same,appearance,"high humidity (25° C., RH 90%±5%), 5 d",white bulk
same,purity,[1],99.70%
same,total impurity,[1],0.30%
same,appearance,"high humidity (25° C., RH 90%±5%), 10 d",white bulk
same,purity,[2],99.78%
same,total impurity,[2],0.22%
same,purity,[3],95.03%
same,total impurity,[3],4.97%
same,purity,[4],92.16%
same,total impurity,[4],7.84%
same,stability (summary in words),"high-temperature, high humidity or illumination for 10 d, listed as compound (I-n) in amorphism form",poor stability
same,purity,[5],99.69%
same,total impurity,[5],0.31%
same,purity,[6],99.72%
same,total impurity,[6],0.28%
